Data set [1] concerns SK-N-MC neuroepithelioma cells. Kind of data set: 3H-thymidine, 3H-leucine or 3H-uridine incorporation. Format: cell-based, human. Particulars: 20 hr with chelators 50 μM, DFO 100 μM, then label 2 h, Mean±SD. As for the experimental part: Labelling of cells with ^3H-thymidine (20 Ci/mmol: Dupont NEN, MA, U.S.A.), ^3H-uridine (42.7 Ci/mmol/Dupont NEN, MA, U.S.A.) and ^3H-leucine (52 Ci/mmol: Dupont NEN) was estimated after precipitation with trichloroacetic acid (TCA). After a 20 hr incubation with the chelators, ^3H-leucine, ^3H-uridine or ^3H-thymidine (1 μCi/ml) were then added for 2 hrs at 37° C. Subsequently, petri dishes containing cell cultures were placed on ice and washed four times with ice-cold Hanks' balanced salt solution (BSS) and the cells detached from the plate using 1 mM EDTA in Ca/Mg-free saline. The cells were then pelleted by centrifugation, the supernatant removed and the pellet frozen at −70° C. After thawing the cells on ice, 1 ml of ice-cold 20% TCA was added and the solution then vortexed and kept on ice for 1 hr with periodic mixing. This solution was then centrifuged at 15,000 rpm for 15 mins at 4° C. and the supernatant removed. The pellet was then washed twice with 1 ml of ice-cold 10% TCA. The pellet was dissolved in 0.5 ml of 1 M NaOH and transferred to scintillation tubes with 3 ml of scintillant. Radioactivity was measured on a β-scintillation counter (LKB Wallace, Finland).
Table 3. The effect of the chelators on ^3H-thymidine, ^3H-leucine, or ^3H-uridine incorporation into SK-N-MC neuroepithelioma cells. Cells were incubated for 20 hr at 37° C. with either DFO (100 μM) or the other chelators (50 μM). Following this, either ^3H-thymidine, ^3H-leucine, or ^3H-uridine (1 μCi/mL) were added and the cells incubated for an additional 2 h at 37° C. (see Methods for details). Results are Mean±SD (4–5 determinations) from a typical experiment of 2–4 experiments performed.

Data set [2] deals with iron-regulatory proteins (IRPs). In words: iron regulatory protein gel-retardation assay (IRP-RNA binding activity). Format: cell-based, human. Particulars: SK-N-MC cells, 20 hr incubation; chelators 25 μM, DFO 100 μM, FAC 100 μg/ml. How it is done: FIG. 5. The effect of the chelators on the RNA-binding activity of the iron-regulatory proteins (IRPs) in the SK-N-MC neuroepithelioma cells. Cells were incubated for 20 h with either medium alone (control), ferric ammonium citrate (FAC: 100 μg/ml), DFO (100 μM), or the other chelators (25 μM).
A gel-retardation assay was used to measure the interaction between the IRPs and IRE using established techniques (Leibold et al., […]. Proc. Natl. Acad. Sci. USA 85 2171–5; Müllner et al., 1989 Cell 58 373–82). Briefly, after incubation with medium alone (control) or medium containing ferric ammonium citrate (100 μg/ml: Aldrich Ltd., Sydney, Australia) or the chelator. […] cells were washed with ice-cold phosphate-buffered saline (PBS) and lysed at 4° C. in 40 μl of ice-cold Munro extraction buffer (10 mM HEPES, pH 7.6, 3 mM MgCl2, 40 mM KCl, 5% glycerol, 1 MM dithiothreitol and 0.5% Nonidet P-40). After lysis, the samples were then centrifuged at 10,000 rpm for 3 mins at 4° C. to remove nuclei and the supernatant stored at −70° C. Frozen cytoplasmic extracts were thawed on ice and then centrifuged at 15,000 rpm for 10 min at 4° C. The protein concentration of the soluble supernatant was determined using the BioRad protein assay (BioRad Ltd., USA). Samples of cytoplasmic extracts were diluted to a protein concentration of 100 μg/ml in Munro buffer without Nonidet P-40 and 1 μg aliquots were analyzed for IRP by incubation with 0.1 ng (approximately 1×10^5 cpm) of ^32P-labelled pGL66 RNA transcript (Leibold et al., 1988). The riboprobe was transcribed in vitro from linearized plasmid templates using SP6 RNA polymerase in the presence of α-^32P UTP (Dupont, NEN). This latter reaction was performed using the Promega Riboprobe In Vitro Transcription Kit (Promega, Madison, Wis., USA). The probe was subsequently purified on a 6% urea/PAGE gel. To form RNA-protein complexes, cytoplasmic extracts containing 1 μg of protein were incubated for 10 mins at room temperature with the ^32P-labelled riboprobe. Unprotected probe was degraded by incubation with 1 U of RNAse T1 for 10 mins at room temperature. Heparin (Sigma) at a final concentration of 5 mg/ml was then added and incubated with the extract for another 10 min at room temperature to exclude non-specific binding. RNA-protein complexes were analyzed in 6% non-denaturing polyacrylamide gels at 4° C. as described by Konarska et al., 1986, Cell 46 845–55. Gels were dried, covered in plastic film and exposed to Kodak XAR films at −70° C. with an intensifying screen.
An important effect of intracellular Fe depletion using DFO is the activation of RNA-binding activity of the iron regulatory proteins (IRP's) (Hentze et al., 1996, Proc. Natl. Acad. Sci. USA 93 8175–82). […] The present inventors examined the effect of a 20 hr incubation with 311, PIH and the PCIH analogues (25 μM) on IRP-RNA binding activity in SK-N-MC cells. In all experiments, DFO (100 μM) was used as a positive control to deplete cells of Fe and increase IRP-RNA binding activity. In contrast, ferric ammonium citrate (FAC: 100 μg/ml) was used to donate Fe to cells and reduce IRP-RNA binding.

Data set [3] has as its system 59Fe-loaded reticulocytes. In words: mobilisation of 59Fe from 59Fe-loaded reticulocytes (mitochondrial Fe overload model). It is filed as cell-based, rabbit. The note with it: for cellular 59Fe released from 59Fe-loaded reticulocytes, 1 h reincubation (FIG. 9): chelator concentration 200 μM (range 10–200 μM), reincubated 1 h at 37° C.; for cellular 59Fe mobilized from 59Fe-loaded reticulocytes after 240 min: chelators 200 μM, 240 min of incubation. How it is done: FIG. 7. The effect of reincubation time with the Fe chelators on ^59Fe mobilization from ^59Fe-loaded reticulocytes. The cells were labelled with ^59Fe-transferrin (3.75 μM) in the presence of the heme synthesis inhibitor, succinylacetone (1 mM), and incubated with the cells for 1 h at 37° C. The ^59Fe-labelled reticulocytes were then incubated with the chelators (200 μM) for 15–240 min at 37° C. The results are Mean±SD (3 determinations) in a typical experiment of three performed.
FIG. 9. The effect of chelator concentration on ^59Fe mobilization from ^59Fe-loaded reticulocytes. The cells were labelled with ^59Fe-transferrin (3.75 μM) in the presence of the heme synthesis inhibitor, succinylacetone (1 mM), and incubated with the cells for 1 h at 37° C. The ^59Fe-labelled reticulocytes were then incubated with the chelators (10–200 μM) for 15–240 min at 37° C. The results are Mean±SD (3 determinations) in a typical experiment of three performed.
Reticulocytosis was induced by standard procedures (Richardson, D. R., Ponka, P and Vyoral, D (1996) Blood 87, 3477–3488) in New Zealand white rabbits by repeated phlebotomy by cardiac puncture using a protocol approved by the McGill University Animal Care Committee. Reticulocytes were identified based on staining with new methylene blue, and cell counts were determined using an improved Neubauer counting chamber.
Reticulocytes were obtained from chronically bled rabbits as described above and were incubated with 1 mM succinylacetone (SA: Sigma) to inhibit heme synthesis. After a 15 min preincubation in the presence of SA, ^59Fe-Tf ([…]) was added and incubated with the cells for 1 H at 37° C. with shaking. After this incubation the reticulocytes were washed three times with ice-cold PBS to remove non-specifically bound ^59Fe-Tf. The washed ^59Fe-labelled reticulocytes (30–35 μL) were incubated in buffered salt solution (250 μL final volume) with the apochelators. The SA was present in all incubations with the chelators to prevent the utilization of non-heme ^59Fe for heme synthesis. After the incubation, ^59Fe was measured both in washed reticulocytes and in the medium, and the percentage of ^59Fe mobilized from the reticulocytes was then calculated.

Data set [4] concerns iron-regulatory proteins (IRPs). In words: iron regulatory protein gel-retardation assay (IRP-RNA binding activity). It is filed as cell-based, human.
For data set [5] the following is noted: Fe-overloaded patients (Olivieri et al.); cited from earlier work.
Another data set is described as follows: aqueous solubility. The note with it: water / aqueous solutions. It is filed as physicochemical.
The subject of data set [6] is SK-N-MC neuroepithelioma cells. In words: internalized 59Fe uptake from 59Fe-transferrin. It is filed as cell-based, human. The note with it: SK-N-MC; 3 hrs at 37° C.; chelators 50 μM, DFO 100 μM; FIG. 2B screening experiment. As for the experimental part:
The effect of chelators on ^59Fe uptake from ^59Fe-Tf and ^59Fe release from prelabelled cells was studied using standard procedures reported previously (Richardson et al., 1994, J. Lab Clin. Med. 124 660-71). The amount of ^59Fe internalized by the cells was measured by incubation with the general protease pronase (1 mg/ml) for 30 min at 4° C. to remove membrane-bound ^59Fe and Tf (Richardson et al., 1990; Baker et al., 1998, Biochim. Biophys. Acta 1380 21-30). […] To determine the ability of the chelators to inhibit ^59Fe uptake from ^59Fe-Tf (0.75 μM). […] Table 2. The effect of DFO, 311, […], or PCBHH on internalized ^59Fe uptake from ^59Fe-transferrin by BE-2 neuroblastoma cells, SK-N-MC neuroepithelioma cells, and SK-Mel-28 melanoma cells. Cells were incubated with the chelators and ^59Fe-transferrin (0.75 μM) for 3 h at 37° C., washed, and incubated for 30 min at 4° C. with pronase (1 mg/ml) to separate the internalized from the membrane-bound ^59Fe. All chelators were screened at a concentration of 50 μM except for DFO which was examined at 100 μM. Results are mean±SD (three determinations) from a typical experiment.

In data set [7] the test system is SK-N-MC neuroepithelioma cells. Kind of data set: 59Fe release from prelabelled cells (iron efflux). It is filed as cell-based, human. The note with it: 3 hr labelling, 3 hr reincubation, ligands 50 μM, DFO 100 μM, FIG. 2A screening experiment. How it is done: The effect of chelators on ^59Fe uptake from ^59Fe-Tf and ^59Fe release from prelabelled cells was studied using standard procedures reported previously (Richardson et al., 1994, J. Lab Clin. Med. 124 660–71). The amount of ^59Fe internalized by the cells was measured by incubation with the general protease pronase (1 mg/ml) for 30 min at 4° C. to remove membrane-bound ^59Fe and Tf (Richardson et al., 1990; Baker et al., 1998, Biochim. Biophys. Acta 1380 21–30).
The efflux of ^59Fe from SK-N-MC cells was examined after a 3 hr labelling period with ^59Fe-Tf (0.75 μM) followed by a 3 hr reincubation in the presence and absence of DFO (100 μM) or the remainder of the ligands at 50 μM (FIG. 2A).
Table 1. The effect of DFO, 311, PCTH, PCBH, or PCBHH on ^59Fe release from BE-2 neuroblastoma cells, SK-N-MC neuroepithelioma cells, and SK-Mel-28 melanoma cells. Cells were labeled for 3 h at 37° C. with ^59Fe-transferrin (0.75 μM), washed, and then reincubated with the chelators for 3 h at 37° C. […] Results are Mean±SD of three determinations in a typical experiment.

Where “and” joins values, the source holds several entries; their conditions need not be identical. Identical values can stand only once. Like-named read-outs stand apart in the source and are kept apart here.

The source of these data is US6989397B1, “Iron chelators and uses thereof” (University of Queensland, priority 1999, dated 2006).

For `Cc1ncc(CO)c(C=NNC(=O)c2ccncc2)c1O` [PIH, pyridoxal isonicotinoyl hydrazone, reference compound], in data set [1], the “3H-Leucine incorporation, % Control” value stood at 84 ± 5 % Control; the “3H-Thymidine incorporation, % Control” value is 52 % Control and 52 ± 9 % Control; the “3H-Uridine incorporation, % Control” value is listed as 56 ± 9 % Control. In data set [2], the “IRP-RNA binding activity compared to the control (FIG. 5)” value is recorded as “little effect”. For the same molecule, in data set [3] (3 determinations), the “cellular 59Fe released from 59Fe-loaded reticulocytes, 1 h reincubation (FIG. 9)” value (“cellular 59Fe released” for short) was found to be 18±1%. In addition, the “IRP-RNA binding activity at higher concentrations” value in data set [4] (higher concentrations than 25 μM, not specified) was “did increase”.
Consider ferric ammonium citrate [FAC], for which the “IRP-RNA binding activity compared to the control (FIG. 5)” value in data set [4] is given as “appreciable decrease”.
Regarding `Cc1c(O)c(=O)ccn1C` [deferiprone, 1,2-dimethyl-3-hydroxypyrid-4-one], in data set [5], the “adverse outcome of treatment of patients” value is “hepatic fibrosis and an increase in liver Fe levels”.
As for `Cl.Cl.O=C(NN=Cc1ccccn1)c1ccncc1` [PCIH-2HCl], the “aqueous solubility, in words” value in the data set “aqueous solubility” is listed as “most soluble”.
On to `Cl.O=C(NN=Cc1ccccn1)c1cccs1` [PCTH-HCl], for which the “aqueous solubility, in words” value in “aqueous solubility” was “lowest aqueous solubility of the series”.
Turning to `O=C(NN=Cc1ccccn1)c1ccncc1` [PCIH, 2-pyridylcarboxaldehyde isonicotinoyl hydrazone], the “59Fe uptake from 59Fe-Tf, % of the control value (FIG. 2B)” value (shortened to “59Fe uptake from 59Fe-Tf, %”) in data set [6] is listed as “slightly more effective than DFO”. Moreover, in data set [2], the “IRP-RNA binding activity compared to the control (FIG. 5)” value is “little effect”. Besides, the “cellular 59Fe mobilized from 59Fe-loaded reticulocytes after 15 min” value in data set [3] (chelator 200 μM, 15 min incubation, 37° C., FIG. 7, 3 determinations) came to 21±1%. Moreover, the “cellular 59Fe released” value in data set [3] (3 determinations) is recorded as 31±1%. Besides, the “cellular 59Fe release from reticulocytes as a function of incubation time (FIG. 7), rank in words” value in data set [3] (eight compounds, 200 μM, reincubated up to 240 min) is “most effective”.
For the molecule `O=C(NN=Cc1ccccn1)c1ccc(O)cc1` [PCHH, 2-pyridylcarboxaldehyde p-hydroxybenzoyl hydrazone], the “release of cellular 59Fe (FIG. 2A)” value in data set [7] was “did not appreciably increase”. Further, the “59Fe uptake from 59Fe-Tf, %” value in data set [6] is “no effect”. In addition, in data set [2], the “IRP-RNA binding activity compared to the control (FIG. 5)” value is listed as “decreased”. Besides, in data set [3] (3 determinations), the “cellular 59Fe released” value is “very low activity”. Also, the “cellular 59Fe mobilized from 59Fe-loaded reticulocytes after 240 min” value in data set [3] (FIG. 7) is 6%.
Turning to `Nc1ccc(C(=O)NN=Cc2ccccn2)cc1` [PCAH, 2-pyridylcarboxaldehyde p-aminobenzoyl hydrazone], the “release of cellular 59Fe (FIG. 2A)” value in data set [7] is listed as “did not appreciably increase”. Also, the “59Fe uptake from 59Fe-Tf, %” value in data set [6] is reported as “no effect”. For the same molecule, the “IRP-RNA binding activity compared to the control (FIG. 5)” value in data set [2] is listed as “decreased”. Further, in data set [3] (FIG. 7), the “cellular 59Fe mobilized from 59Fe-loaded reticulocytes after 240 min” value is 15%.
